According to article PMC8876959, “Comparative Evaluation of Radiochemical and Biological Properties of ^131I- and [^99mTc]Tc(CO)3-Labeled RGD Analogues Planned to Interact with the αvβ3 Integrin Expressed in Glioblastoma” (Pharmaceuticals, 2022):

Assay: Ex vivo biodistribution in normal (control) rats
Parameters: species or system rat
Conditions: gamma counter, mean ± SEM, n = 3
Method: Adult male Sprague Dawley rats (280–320 g) were maintained under controlled environmental conditions (12 h light-dark cycle; constant temperature 21 ± 2 °C), with free access to water and food. Tumorigenic glioblastoma cells were implanted in the right frontal cortex, following specific coordinates (referred to bregma): anteroposterior = 1.0 mm; lateral = 3.0 mm; depth = 5.0 mm. An aliquot of culture medium (10 µL) containing 1 × 10^6 C6 cells in suspension was injected slowly (1 µL/min) using a Hamilton syringe positioned on a stereotaxic surgery frame. In the control group, only the culture medium, without cells, was injected. An interval of 20 days after cell inoculation was allowed for tumor development.
The ex vivo biodistribution of each radiolabeled peptide (4 MBq; 0.2 mL) was evaluated at 15, 60, and 240 min after IV injection in control and tumor-bearing animals (n = 3 per group, per time point). The molar activities in this study were 0.68 and 16.2 MBq/nmol for the iodine and tricarbonyl-labeled peptides, respectively. Animals were deeply anesthetized and sacrificed at the corresponding biodistribution time point. Brain, spleen, heart, stomach, liver, lungs, kidneys, and blood were collected and weighed. Then, their radioactivities were determined using the above-mentioned automatic gamma counter. The radioactivity of each organ/tissue was evaluated as the percentage of injected dose per gram of organ/tissue (% ID/g), using the same injected dose activity as a standard.

For [^99mTc]Tc(CO)3-GRGDHV, the “Ex vivo biodistribution, Blood” value (15 min after IV injection) was 11.30 ± 0.84 %ID/g, the “Ex vivo biodistribution, Blood” value (60 min after IV injection) was 9.78 ± 0.52 %ID/g and the “Ex vivo biodistribution, Blood” value (240 min after IV injection) was 11.12 ± 1.27 %ID/g. For the same substance, the “Ex vivo biodistribution, Brain” value (15 min after IV injection) was 0.32 ± 0.01 %ID/g, the “Ex vivo biodistribution, Brain” value (60 min after IV injection) was 0.28 ± 0.03 %ID/g and the “Ex vivo biodistribution, Brain” value (240 min after IV injection) was 0.60 ± 0.04 %ID/g. The “Ex vivo biodistribution, Heart” value (15 min after IV injection) was 5.14 ± 0.12 %ID/g, the “Ex vivo biodistribution, Heart” value (60 min after IV injection) was 4.41 ± 0.23 %ID/g and the “Ex vivo biodistribution, Heart” value (240 min after IV injection) was 4.84 ± 0.37 %ID/g. For the same substance, the “Ex vivo biodistribution, Kidneys” value (15 min after IV injection) was 62.73 ± 2.17 %ID/g, the “Ex vivo biodistribution, Kidneys” value (60 min after IV injection) was 51.04 ± 1.49 %ID/g and the “Ex vivo biodistribution, Kidneys” value (240 min after IV injection) was 40.17 ± 0.90 %ID/g. The “Ex vivo biodistribution, Liver” value (15 min after IV injection) was 6.06 ± 0.79 %ID/g, the “Ex vivo biodistribution, Liver” value (60 min after IV injection) was 9.55 ± 1.34 %ID/g and the “Ex vivo biodistribution, Liver” value (240 min after IV injection) was 12.26 ± 1.34 %ID/g. The “Ex vivo biodistribution, Lungs” value (15 min after IV injection) was 7.76 ± 0.75 %ID/g, the “Ex vivo biodistribution, Lungs” value (60 min after IV injection) was 9.25 ± 1.65 %ID/g and the “Ex vivo biodistribution, Lungs” value (240 min after IV injection) was 8.59 ± 0.64 %ID/g. The “Ex vivo biodistribution, Spleen” value (15 min after IV injection) was 3.41 ± 0.41 %ID/g, the “Ex vivo biodistribution, Spleen” value (60 min after IV injection) was 3.69 ± 0.60 %ID/g and the “Ex vivo biodistribution, Spleen” value (240 min after IV injection) was 4.93 ± 0.45 %ID/g. The “Ex vivo biodistribution, Stomach” value (15 min after IV injection) was 3.09 ± 0.77 %ID/g, the “Ex vivo biodistribution, Stomach” value (60 min after IV injection) was 10.27 ± 0.59 %ID/g and the “Ex vivo biodistribution, Stomach” value (240 min after IV injection) was 10.78 ± 3.11 %ID/g.
